We go through 25 compounds from patent publication US8987314B2, “Amide, urea or sulfone amide linked benzothiazole inhibitors of endothelial lipase” (Bristol-Myers Squibb Company, priority 2012, dated 2015).

SMILES strings stand for the structures. Like-named read-outs stand apart in the source and are kept apart here.

The target of one assay is Endothelial lipase (EL) (Homo sapiens (Human), UniProt Q9Y5X9). As to the kind of experiment: EL assay: endothelial lipase activity with fluorescent substrate A10070 in DMPG vesicles. It counts as biochemical. The gist of the method:
(§1)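 Substrate A10070 sits in sonicated DMPG vesicles at 0.11 mole fraction. Lipase and compound preincubated 30 min, 37° C, in HEPES pH 8.0 buffer with CaCl2.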

A further assay has as its target hepatic lipase (HL) (Homo sapiens (Human), UniProt P11150). As to the kind of experiment: HL assay: hepatic lipase activity with fluorescent substrate A10070 in DMPG vesicles. It counts as biochemical. A digest of the protocol:
as §1

[1] abbreviates: EL from conditioned media of HT-1080 cells, 30 min incubation with compound at 37° C., A10070/DMPG vesicles.
Where [2] appears, read: HL partially purified from conditioned media of COS cells, 30 min incubation with compound at 37° C., A10070/DMPG vesicles.

Chain of hepatic lipase (HL) (P11150 23-499, species assumed): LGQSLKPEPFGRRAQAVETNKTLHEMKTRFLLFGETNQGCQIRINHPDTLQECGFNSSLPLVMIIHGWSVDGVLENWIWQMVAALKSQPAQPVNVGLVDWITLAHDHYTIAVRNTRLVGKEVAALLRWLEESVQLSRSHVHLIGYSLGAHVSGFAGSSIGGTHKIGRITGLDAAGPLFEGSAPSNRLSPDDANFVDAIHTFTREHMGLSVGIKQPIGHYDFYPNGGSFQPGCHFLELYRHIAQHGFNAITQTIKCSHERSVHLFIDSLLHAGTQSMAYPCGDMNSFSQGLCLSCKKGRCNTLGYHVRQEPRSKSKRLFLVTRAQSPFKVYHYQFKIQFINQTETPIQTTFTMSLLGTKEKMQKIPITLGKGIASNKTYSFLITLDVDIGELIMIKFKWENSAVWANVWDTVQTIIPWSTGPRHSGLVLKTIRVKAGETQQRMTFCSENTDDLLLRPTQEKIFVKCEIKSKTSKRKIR
Chain of Endothelial lipase (EL) (Q9Y5X9 21-500): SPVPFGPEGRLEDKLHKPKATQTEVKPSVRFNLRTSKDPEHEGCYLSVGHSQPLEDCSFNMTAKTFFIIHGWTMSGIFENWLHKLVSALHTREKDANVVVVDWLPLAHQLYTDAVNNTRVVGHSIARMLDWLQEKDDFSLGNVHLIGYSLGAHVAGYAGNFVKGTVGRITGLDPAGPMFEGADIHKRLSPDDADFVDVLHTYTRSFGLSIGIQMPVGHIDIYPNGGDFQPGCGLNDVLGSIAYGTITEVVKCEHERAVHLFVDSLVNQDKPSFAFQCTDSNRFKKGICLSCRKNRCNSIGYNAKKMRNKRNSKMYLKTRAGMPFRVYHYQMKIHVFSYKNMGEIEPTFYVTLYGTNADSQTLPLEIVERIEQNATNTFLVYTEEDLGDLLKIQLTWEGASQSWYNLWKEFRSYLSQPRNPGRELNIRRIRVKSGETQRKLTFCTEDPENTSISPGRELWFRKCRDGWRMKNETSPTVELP

On to `CCS(=O)(=O)C(C(=O)NCc1nnc(C)o1)c1nc2cc(F)c(-c3ccccc3)cc2s1` (centres unmarked) [Example B151, 2-(ethylsulfonyl)-2-(5-fluoro-6-phenyl-1,3-benzothiazol-2-yl)-N-((5-methyl-1,3,4-oxadiazol-2-yl)methyl)acetamide], for which the figures for the 50% inhibitory concentration (IC50) against Endothelial lipase (EL) and against hepatic lipase (HL) were less than 10 nM and 47 nM, respectively.
With `Cc1nnc(CNC(=O)C(c2nc3cc(F)c(-c4ccccc4)cc3s2)S(=O)(=O)CC(C)C)o1` (centres unmarked) [Example B152, 2-(5-fluoro-6-phenyl-1,3-benzothiazol-2-yl)-2-(isobutylsulfonyl)-N-((5-methyl-1,3,4-oxadiazol-2-yl)methyl)acetamide], the results for the half-maximal inhibitory concentration (IC50) against Endothelial lipase (EL) and at hepatic lipase (HL) were less than 10 nM and 39 nM, respectively.
Taken in the same sequence, the figures for `Cc1nnc(CNC(=O)C(c2nc3cc(F)c(-c4ccccc4)cc3s2)S(=O)(=O)Cc2ccccc2)o1` (centres unmarked) [Example B153, 2-(benzylsulfonyl)-2-(5-fluoro-6-phenyl-1,3-benzothiazol-2-yl)-N-((5-methyl-1,3,4-oxadiazol-2-yl)methyl)acetamide] were less than 10 nM and 39 nM.
Taken in the same sequence, the figures for `Cc1nnc(CNC(=O)C(c2nc3cc(F)c(-c4ccccc4)cc3s2)S(C)(=O)=O)o1` (centres unmarked) [Example B154, 2-(5-fluoro-6-phenyl-1,3-benzothiazol-2-yl)-N-[(5-methyl-1,3,4-oxadiazol-2-yl)methyl]-2-(methylsulfonyl)acetamide] were less than 10 nM and 11 nM.
Taken in the same sequence, the figures for `COCCS(=O)(=O)C(C(=O)NCc1nnc(C)o1)c1nc2cc(F)c(-c3ccccc3)cc2s1` (centres unmarked) [Example B155, 2-(5-fluoro-6-phenyl-1,3-benzothiazol-2-yl)-2-[(2-methoxyethyl)sulfonyl]-N-[(5-methyl-1,3,4-oxadiazol-2-yl)methyl]acetamide] were less than 10 nM and less than 10 nM.
`CC(C)(C)OC(=O)c1ccc(-c2ccc3nc(C(C(=O)NCCS(N)(=O)=O)S(C)(=O)=O)sc3c2)cc1` (centres unmarked) [Example B156, tert-butyl 4-(2-(1-(methylsulfonyl)-2-oxo-2-(2-sulfamoylethylamino)eth-yl)benzo[d]thiazol-6-yl)benzoate]: the IC50 against Endothelial lipase (EL) and against hepatic lipase (HL) was less than 10 nM in each case.
In the case of `NS(=O)(=O)CCNC(=O)C(c1nc2ccc(-c3ccc(C(=O)N4CCOCC4)cc3)cc2s1)S(=O)(=O)CCN1CCOCC1` (centres unmarked) [Example B157, 2-{6-[4-(4-Morpholinylcarbonyl)phenyl]-1,3-benzothiazol-2-yl}-2-{[2-(4-morpholinyl)ethyl]sulfonyl}-N-(2-sulfamoylethyl)acetamide], the IC50 – broadly, the midpoint of a concentration-inhibition curve – on Endothelial lipase (EL) (setting [1]) is less than 10 nM; on hepatic lipase (HL) (setting [2]), 147 nM.
Turning to `NS(=O)(=O)CCNC(=O)C(c1nc2ccc(-c3ccc(C(=O)N4CCOCC4)cc3)cc2s1)S(=O)(=O)CCNC(=O)OCc1ccccc1` (centres unmarked) [Example B158, benzyl (2-((1-(6-(4-(4-morpholinylcarbonyl)phen-yl)-1,3-benzothiazol-2-yl)-2-oxo-2-((2-sulfamoyl-ethyl)amino)ethyl)sul-fonyl)ethyl)carbamate], the 50% inhibitory concentration (IC50) at Endothelial lipase (EL) was less than 10 nM; at hepatic lipase (HL) it was 31 nM.
Taken in the same sequence, the figures for `NCCS(=O)(=O)C(C(=O)NCCS(N)(=O)=O)c1nc2ccc(-c3ccc(C(=O)N4CCOCC4)cc3)cc2s1` (centres unmarked) [Example B159] were less than 10 nM and 22 nM.
Regarding `NS(=O)(=O)CCNC(=O)C(c1nc2cc(F)c(-c3ccccc3)cc2s1)S(=O)(=O)CCN1CCOCC1` (centres unmarked) [Example B160, 2-(5-fluoro-6-phenyl-1,3-benzothiazol-2-yl)-2-((2-(4-morpholinyl)ethyl)sul-fonyl)-N-(2-sulfamoylethyl)acetamide], the 50% inhibitory concentration (IC50) was less than 10 nM against Endothelial lipase (EL) and 20 nM at hepatic lipase (HL).
Taken in the same sequence, the figures for `NCCS(=O)(=O)C(C(=O)NCCS(N)(=O)=O)c1nc2ccc(-c3ccccc3)cc2s1` (centres unmarked) [Example B161, 2-((2-aminoethyl)sulfonyl)-2-(6-phenyl-1,3-benzothiazol-2-yl)-N-(2-sulfamoylethyl)acetamide] were less than 10 nM and 22 nM.
In the case of `COCCn1cc(-c2ccc3nc(C(C(=O)NCCS(N)(=O)=O)S(C)(=O)=O)sc3c2)cn1` (centres unmarked) [Example B162, 2-(6-(1-(2-Methoxyethyl)-1H-pyrazol-4-yl)-1,3-benzothiazol-2-yl)-2-(methylsulfonyl)-N-(2-sulfamoylethyl)acetamide], the half-maximal inhibitory concentration (IC50) at Endothelial lipase (EL) (setting [1]) is less than 10 nM; at hepatic lipase (HL) (setting [2]) it was 995 nM.
On to `COCCn1cc(-c2ccc3nc(C(C(=O)NCCS(N)(=O)=O)S(=O)(=O)Cc4ccc(F)cc4)sc3c2)cn1` (centres unmarked) [Example B163, 2-((4-fluorobenzyl)sul-fonyl)-2-(6-(1-(2-methoxyethyl)-1H-pyrazol-4-yl)-1,3-benzothiazol-2-yl)-N-(2-sulfamoylethyl)a-cetamide], for which the IC50 against Endothelial lipase (EL) worked out at 28 nM; against hepatic lipase (HL), 2550 nM.
Taken in the same sequence, the figures for `COCCn1cc(-c2ccc3nc(C(C(=O)NCCS(N)(=O)=O)S(=O)(=O)CC4CC4)sc3c2)cn1` (centres unmarked) [Example B165, 2-((cyclopropylmethyl)sul-fonyl)-2-(6-(1-(2-methoxyethyl)-1H-pyrazol-4-yl)-1,3-benzothiazol-2-yl)-N-(2-sulfamoylethyl)a-cetamide] were 37 nM and 317 nM.
Consider `CS(=O)(=O)C(C(=O)NCCS(N)(=O)=O)c1nc2ccc(-c3ccc(C(=O)N4CC(F)(F)C4)cc3)cc2s1` (centres unmarked) [Example B166, 2-(6-(4-(3,3-Difluoroazetidine-1-carbonyl)phenyl)benzo[d]thiazol-2-yl)-2-(methylsulfonyl)-N-(2-sulfamoylethyl)acetamide], for which the values for the half-maximal inhibitory concentration (IC50) at Endothelial lipase (EL) (setting [1]) and on hepatic lipase (HL) (setting [2]) were less than 10 nM and 13 nM, respectively.
Turning to `COCCS(=O)(=O)C(C(=O)NCCS(N)(=O)=O)c1nc2ccc(-c3ccc(C(=O)N4CC(F)(F)C4)cc3)cc2s1` (centres unmarked) [Example B167, 2-(6-(4-((3,3-difluoro-1-azetidinyl)carbonyl)phen-yl)-1,3-benzothiazol-2-yl)-2-((2-methoxyethyl)sul-fonyl)-N-(2-sulfamoylethyl)acetamide], the 50% inhibitory concentration (IC50) on Endothelial lipase (EL) was less than 10 nM; against hepatic lipase (HL) it was 79 nM.
Taken in the same sequence, the figures for `COCCS(=O)(=O)C(C(=O)NCCS(N)(=O)=O)c1nc2ccc(-c3ccc(C(=O)N4CCC(F)(F)C4)cc3)cc2s1` (centres unmarked) [Example B168, 2-(6-(4-((3,3-difluoro-1-pyrrolidinyl)carbonyl)phen-yl)-1,3-benzothiazol-2-yl)-2-((2-methoxyethyl)sul-fonyl)-N-(2-sulfamoyl-ethyl)acetamide] were less than 10 nM and 60 nM.
Taken in the same sequence, the figures for `CS(=O)(=O)C(C(=O)NCCS(N)(=O)=O)c1nc2ccc(-c3ccc(C(=O)N4CCC(F)(F)C4)cc3)cc2s1` (centres unmarked) [Example B169, 2-(6-(4-((3,3-difluoro-1-pyrrolidinyl)carbonyl)phen-yl)-1,3-benzothiazol-2-yl)-2-(methylsulfonyl)-N-(2-sulfamoylethyl)a-cetamide] were less than 10 nM and 91 nM.
As for `NS(=O)(=O)CCNC(=O)C(c1nc2ccc(-c3ccc(C(=O)N4CCC(F)(F)C4)cc3)cc2s1)S(=O)(=O)CCC(F)(F)F` (centres unmarked) [Example B170, 2-(6-(4-((3,3-difluoro-1-pyrrolidinyl)carbonyl)phen-yl)-1,3-benzothiazol-2-yl)-N-(2-sulfamoylethyl)-2-((3,3,3-trifluoropropyl)sul-fonyl)acetamide], the figures for the half-inhibitory concentration (IC50) at Endothelial lipase (EL) and at hepatic lipase (HL) were less than 10 nM and 32 nM, respectively.
For the compound `CS(=O)(=O)C(C(=O)NCCS(N)(=O)=O)c1nc2ccc(-c3ccc(C(=O)N4CCC(F)(F)CC4)cc3)cc2s1` (centres unmarked) [Example B171, 2-(6-(4-((4,4-difluoro-1-piperidinyl)carbonyl)phen-yl)-1,3-benzothiazol-2-yl)-2-(methylsulfonyl)-N-(2-sulfamoylethyl)a-cetamide], the IC50 is less than 10 nM at Endothelial lipase (EL) and 19 nM against hepatic lipase (HL).
Regarding `COCCN(C)C(=O)c1ccc(-c2ccc3nc(C(C(=O)NCCS(N)(=O)=O)S(C)(=O)=O)sc3c2)cc1` (centres unmarked) [Example B172, N-(2-Methoxyethyl)-N-methyl-4-(2-(1-(methylsulfonyl)-2-oxo-2-((2-sulfamoylethyl)amino)ethyl)-1,3-benzothiazol-6-yl)benzamide], the IC50 is less than 10 nM on Endothelial lipase (EL) (setting [1]) and 77 nM at hepatic lipase (HL) (setting [2]).
As to `CS(=O)(=O)C(C(=O)NCCS(N)(=O)=O)c1nc2ccc(-c3ccc(C(=O)O)cc3)cc2s1` (centres unmarked) [Example B173, 4-(2-(1-(Methylsulfonyl)-2-oxo-2-(2-sulfamoylethylamino)ethyl)benzo[d]thiazol-6-yl)benzoic acid], the IC50 at Endothelial lipase (EL) (setting [1]) is less than 10 nM; on hepatic lipase (HL) (setting [2]) it was 274 nM.
Taken in the same sequence, the figures for `CC1(O)CN(C(=O)c2ccc(-c3ccc4nc(C(C(=O)NCCS(N)(=O)=O)S(C)(=O)=O)sc4c3)cc2)C1` (centres unmarked) [Example B174, 2-(6-(4-(3-Hydroxy-3-methylazetidine-1-carbonyl)phenyl)benzo[d]thiazol-2-yl)-2-(methylsulfonyl)-N-(2-sulfamoylethyl)acetamide] were less than 10 nM and 402 nM.
As to `COC1CN(C(=O)c2ccc(-c3ccc4nc(C(C(=O)NCCS(N)(=O)=O)S(C)(=O)=O)sc4c3)cc2)C1` (centres unmarked) [Example B175, 2-(6-(4-((3-methoxy-1-azetidinyl)carbonyl)phen-yl)-1,3-benzothiazol-2-yl)-2-(methylsulfonyl)-N-(2-sulfamoylethyl)a-cetamide], the IC50 on Endothelial lipase (EL) is less than 10 nM; against hepatic lipase (HL) it was 118 nM.
Take `CC1(O)CCN(C(=O)c2ccc(-c3ccc4nc(C(C(=O)NCCS(N)(=O)=O)S(C)(=O)=O)sc4c3)cc2)CC1` (centres unmarked) [Example B176, 2-(6-(4-((4-hydroxy-4-methyl-1-piperidinyl)car-bonyl)phenyl)-1,3-benzothiazol-2-yl)-2-(methylsulfonyl)-N-(2-sulfamoylethyl)acetamide]: the half-inhibitory concentration (IC50) at Endothelial lipase (EL) was less than 10 nM; against hepatic lipase (HL), 92 nM.
